Each structure is given as a SMILES string. Activity calls are given as the source filed them. No cut-off for these calls is given here.

The IC50 is the point on the concentration scale where inhibition reaches its midpoint.

Test [1] has as its system HCT-116. Briefly: Antiproliferative activity against human HCT-116 cells assessed as reduction in cell viability by MTT assay. Format: functional, cell-based.
Test [2] has as its system PC-3. In words: Antiproliferative activity against human PC-3 cells assessed as reduction in cell viability by MTT assay. Type of test: functional, cell-based. Background: Tetrazolium dyes change colour on reduction, which living cells bring about.
Test [3] relates to HL-60. Briefly: Antiproliferative activity against human HL-60 cells assessed as reduction in cell viability by MTT assay. Format: functional, cell-based.
Test [4] deals with SNB-19. Briefly: Antiproliferative activity against human SNB-19 cells assessed as reduction in cell viability by MTT assay. Type of test: functional, cell-based.
Test [5] relates to HCT-116. Briefly: Induction of cell cycle arrest in human HCT-116 cells after 24 hrs by PI-staining based flow cytometric analysis. Format: functional. (In general: Flow cytometry measures light scatter and fluorescence of single cells or particles in a stream.)
Test [6] has as its system HCT-116. In words: Induction of cell cycle arrest in human HCT-116 cells assessed as accumulation at S phase at 20 uM after 24 hrs by PI-staining based flow cytometric analysis (reference value: 39.7%). Type of test: functional.

As to `O=C1C=C(N2CCCC2)C(=O)c2ccccc21`, the IC50 is 159 µM in test [1], over 200 µM in test [2], 111 µM in test [3] and over 200 µM in test [4].
`CNC1=CC(=O)c2ccccc2C1=O`: the IC50 in test [1] turned out to be 55.7 µM; in test [2], 93.3 µM; in test [3], 41.4 µM; in test [4] it was 114 µM.
For `O=C1C=C(NCCCNc2ccnc3cc(Cl)ccc23)C(=O)c2ccccc21`, the IC50 in test [1] turned out to be 11.5 µM; in test [2], 8.39 µM; in test [3], 4.78 µM; in test [4], 16.9 µM. Further, in test [5], the outcome was inactive.
For the compound `O=C1C=C(NCc2ccccc2)C(=O)c2ccccc21`, the IC50 in test [1] was 130 µM; in test [2], 70.6 µM; in test [3], 86.5 µM; in test [4], 80 µM.
The corresponding values for `Cc1ccc(S(=O)(=O)OCCNC2=CC(=O)c3ccccc3C2=O)cc1` are 81.8 µM, 59.2 µM, over 200 µM and 21.1 µM.
As for `COc1cccc2c1C(=O)c1c(O)c3c(c(O)c1C2=O)C[C@@](O)(C(=O)CO)C[C@@H]3O[C@H]1C[C@H](N)[C@H](O)[C@H](C)O1` [DOXORUBICIN], the values for the IC50 in test [3] and in test [4] were 2.05 µM and 0.76 µM, respectively.
Regarding `O=C1C=C(NCCCNc2nc(N3CCOCC3)nc(N3CCOCC3)n2)C(=O)c2ccccc21`, the IC50 was 57.5 µM in test [1], 41.8 µM in test [2], 53.4 µM in test [3] and 126 µM in test [4].
`CS(=O)(=O)OCCNC1=CC(=O)c2ccccc2C1=O`: the IC50 is 16.3 µM in test [1], 62.8 µM in test [2], 27.5 µM in test [3] and 31.2 µM in test [4].
In the case of `O=c1[nH]cc(F)c(=O)[nH]1` [FLUOROURACIL], the concentration for half-maximal inhibition (IC50) worked out at 19.3 µM in test [1] and 32.9 µM in test [2]. The Activity in test [6] worked out at 66.6%.
For `O=C1C=C(NCc2ccccn2)C(=O)c2ccccc21`, the IC50 in test [1] was determined as 13.5 µM; in test [2], 16.5 µM; in test [3], 4.59 µM; in test [4], 23.1 µM. In addition, in test [6], the Activity came out at 47.57%.
As to `NCCCNC1=CC(=O)c2ccccc2C1=O`, the IC50 came out at 59.6 µM in test [1], 63.2 µM in test [2], 30 µM in test [3] and 71.3 µM in test [4].
As to `O=C1C=C(NCCO)C(=O)c2ccccc21`, the IC50 was determined as 70.3 µM in test [1], 107 µM in test [2], 49.8 µM in test [3] and 108 µM in test [4].
